This note sets out measurements from patent US11040035B2, “3-oxo-2,6-diphenyl-2,3-dihydropyridazine-4-carboxamides” (BAYER PHARMA AKTIENGESELLSCHAFT, priority 2016, dated 2021).

For test [1], the target named is T1, AHR (Homo sapiens, UniProt P35869).
T1 sequence (P35869 11-848): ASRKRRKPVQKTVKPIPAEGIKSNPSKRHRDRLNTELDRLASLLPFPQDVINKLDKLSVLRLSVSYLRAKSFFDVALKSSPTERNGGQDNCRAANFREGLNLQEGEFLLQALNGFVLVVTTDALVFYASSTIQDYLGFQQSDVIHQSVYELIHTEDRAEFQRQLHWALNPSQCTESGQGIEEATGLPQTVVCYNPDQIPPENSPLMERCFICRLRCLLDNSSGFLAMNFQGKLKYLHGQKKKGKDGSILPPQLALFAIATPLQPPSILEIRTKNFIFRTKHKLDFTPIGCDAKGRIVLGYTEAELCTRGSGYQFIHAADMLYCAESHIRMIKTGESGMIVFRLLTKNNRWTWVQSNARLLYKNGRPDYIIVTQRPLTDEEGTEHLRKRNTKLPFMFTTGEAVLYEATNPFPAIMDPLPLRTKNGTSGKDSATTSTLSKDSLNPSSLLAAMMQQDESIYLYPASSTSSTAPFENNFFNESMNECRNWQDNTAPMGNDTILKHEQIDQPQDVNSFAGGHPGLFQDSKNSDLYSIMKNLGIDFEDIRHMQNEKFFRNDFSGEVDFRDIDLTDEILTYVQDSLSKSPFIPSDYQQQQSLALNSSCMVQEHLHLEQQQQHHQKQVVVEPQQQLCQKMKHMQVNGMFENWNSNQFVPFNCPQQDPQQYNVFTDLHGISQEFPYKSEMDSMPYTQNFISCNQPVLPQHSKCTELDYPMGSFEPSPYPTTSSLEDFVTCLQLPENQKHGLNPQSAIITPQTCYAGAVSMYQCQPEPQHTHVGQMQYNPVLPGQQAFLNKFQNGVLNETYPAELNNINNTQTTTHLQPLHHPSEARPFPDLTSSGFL
The experiment in a line: In vitro assay 2: agonism in human cell line (transactivation assay).

Test [2] has as its target T1, AHR. The experiment in a line: In vitro assay 1: antagonism in human cell line (transactivation assay, kynurenic acid prestimulated). As to conditions: Assay 1: AHR-luc Hum Antagonism IC50 [M], 150 μM kynurenic acid, 20 hours, firefly luciferase.
The mark [3] stands for this setting: Assay 2: AHR-luc Hum Agonism IC50 [M], no kynurenic acid, 20 hours, firefly luciferase.
The mark [4] stands for this setting: read-out: Assay 2: AHR-luc Hum Agonism IC50, no kynurenic acid, 20 hours, firefly luciferase.

In the case of `COc1ccc(-c2cc(C(=O)N[C@@H](C)CO)c(=O)n(-c3cccc(F)c3)n2)cc1` [Example 297, 2-(3-Fluorophenyl)-N-[(2S)-1-hydroxypropan-2-yl]-6-(4-methoxyphenyl)-3-oxo-2,3-dihydropyridazine-4-carboxamide], the figures for the IC50 at AHR [1] (setting [3]) and at AHR [2] were more than 2e-05 M and 8.72e-08 M, respectively.

Take `O=C(NC[C@H](O)C(F)(F)F)c1cc(-c2ccc(CF)cc2)nn(-c2cccc(F)c2)c1=O` [Example 397, 6-[4-(fluoromethyl)phenyl]-2-(3-fluorophenyl)-3-oxo-N-[(2S)-3,3,3-trifluoro-2-hydroxypropyl]-2,3-dihydropyridazine-4-carboxamide]: the IC50 on AHR [1] (setting [3]) was more than 2e-05 M; against AHR [2] it was 1.8e-07 M.

On to `O=C(NCC(O)C(F)(F)F)c1cc(-c2ccc(Cl)c(F)c2)nn(-c2cc(F)cc(F)c2)c1=O` (single isomer, unassigned) [Example 404, 6-(4-chloro-3-fluorophenyl)-2-(3,5-difluorophenyl)-3-oxo-N-(3,3,3-trifluoro-2-hydroxypropyl)-2,3-dihydropyridazine-4-carboxamide], for which the concentration for half-maximal inhibition (IC50) against AHR [1] (setting [3]) is more than 2e-05 M; at AHR [2], 2.7e-07 M.

Regarding `COCC(O)CNC(=O)c1cc(-c2ccc(Cl)cc2)nn(-c2cccc(F)c2)c1=O` (single isomer, unassigned) [Example 32, 6-(4-Chlorophenyl)-2-(3-fluorophenyl)-N-(2-hydroxy-3-methoxypropyl)-3-oxo-2,3-dihydropyridazine-4-carboxamide], the IC50 is more than 2e-05 M against AHR [1] (setting [3]) and 1.81e-07 M against AHR [2].

On to `O=C(NC(CO)C1CC1)c1cc(-c2ccc(C(F)(F)F)cc2)nn(-c2cccc(F)c2)c1=O` (single isomer, unassigned; (+)) [Example 352, (+)-N-(1-cyclopropyl-2-hydroxyethyl)-2-(3-fluorophenyl)-3-oxo-6-[4-(trifluoromethyl)phenyl]-2,3-dihydropyridazine-4-carboxamide], for which the figures for the 50% inhibitory concentration (IC50) on AHR [1] (setting [4]) and at AHR [2] were more than 2e-05 M and 1e-07 M, respectively.

For `C[C@H](O)CCNC(=O)c1cc(-c2ccc(Cl)cc2)nn(-c2cccc(F)c2)c1=O` [Example 205, (+)-6-(4-Chlorophenyl)-2-(3-fluorophenyl)-N-[(3S)-3-hydroxybutyl]-3-oxo-2,3-dihydropyridazine-4-carboxamide], the half-inhibitory concentration (IC50) was more than 2e-05 M at AHR [1] (setting [3]) and 2.12e-07 M at AHR [2].

In the case of `O=C(NC(CO)CCO)c1cc(-c2ccc(Cl)cc2)nn(-c2cccc(F)c2)c1=O` (single isomer, unassigned; (+)) [Example 225, (+)-6-(4-Chlorophenyl)-N-(1,4-dihydroxybutan-2-yl)-2-(3-fluorophenyl)-3-oxo-2,3-dihydropyridazine-4-carboxamide], the IC50 was more than 2e-05 M against AHR [1] (setting [3]) and 2.41e-07 M on AHR [2].

For the compound `CC(O)C(NC(=O)c1cc(-c2ccc(C(F)(F)F)cc2)nn(-c2cccc(F)c2)c1=O)C(F)(F)F` (single isomer, unassigned) [Example 349, 2-(3-fluorophenyl)-3-oxo-N-(1,1,1-trifluoro-3-hydroxybutan-2-yl)-6-[4-(trifluoromethyl)phenyl]-2,3-dihydropyridazine-4-carboxamide], the values for the half-inhibitory concentration (IC50) on AHR [1] (setting [3]) and against AHR [2] were more than 2e-05 M and 3.54e-09 M, respectively.

On to `O=C(NC(CO)C1CCOC1)c1cc(-c2ccc(Cl)c(Cl)c2)nn(-c2cccc(F)c2)c1=O` (centres unmarked) [Example 307, 6-(3,4-Dichlorophenyl)-2-(3-fluorophenyl)-N-[2-hydroxy-1-(tetrahydrofuran-3-yl)ethyl]-3-oxo-2,3-dihydropyridazine-4-carboxamide], for which the concentration for half-maximal inhibition (IC50) was more than 2e-05 M at AHR [1] (setting [3]) and 2.22e-07 M on AHR [2].

For the compound `Cc1ccc(-c2cc(C(=O)NC(CO)C3CC3)c(=O)n(-c3cccc(F)c3)n2)cc1` (racemic) [Example 236, N-[(1RS)-1-Cyclopropyl-2-hydroxyethyl]-2-(3-fluorophenyl)-6-(4-methylphenyl)-3-oxo-2,3-dihydropyridazine-4-carboxamide], the concentration for half-maximal inhibition (IC50) against AHR [1] (setting [3]) was more than 2e-05 M; at AHR [2], 8.23e-08 M.

Take `O=C(NC(CO)CCO)c1cc(-c2ccc(Cl)cc2)nn(-c2cccc(F)c2)c1=O` (single isomer, unassigned; (-)) [Example 226, (−)-6-(4-Chlorophenyl)-N-(1,4-dihydroxybutan-2-yl)-2-(3-fluorophenyl)-3-oxo-2,3-dihydropyridazine-4-carboxamide]: the half-maximal inhibitory concentration (IC50) on AHR [1] (setting [4]) is more than 2e-05 M; on AHR [2], 1.42e-07 M.

Regarding `O=C(NCC(O)C(F)(F)F)c1cc(-c2ccc(Cl)c(F)c2)nn(-c2cccc(F)c2)c1=O` (single isomer, unassigned) [Example 283, 6-(4-chloro-3-fluorophenyl)-2-(3-fluorophenyl)-3-oxo-N-(3,3,3-trifluoro-2-hydroxypropyl)-2,3-dihydropyridazine-4-carboxamide], the values for the IC50 against AHR [1] (setting [3]) and against AHR [2] were more than 2e-05 M and 1.91e-07 M, respectively.

As to `C[C@@H](CO)NC(=O)c1cc(-c2ccc(C(F)F)cc2)nn(-c2cccc(F)c2)c1=O` [Example 93, 6-[4-(Difluoromethyl)phenyl]-2-(3-fluorophenyl)-N-[(2S)-1-hydroxypropan-2-yl]-3-oxo-2,3-dihydropyridazine-4-carboxamide], the figures for the IC50 on AHR [1] (setting [3]) and against AHR [2] were more than 2e-05 M and 3.02e-08 M, respectively.

For `C[C@@H](CO)NC(=O)c1cc(-c2ccc(OC(F)F)cc2)nn(-c2cccc(F)c2)c1=O` [Example 155, 6-[4-(Difluoromethoxy)phenyl]-2-(3-fluorophenyl)-N-[(2S)-1-hydroxypropan-2-yl]-3-oxo-2,3-dihydropyridazine-4-carboxamide], the IC50 is more than 2e-05 M against AHR [1] (setting [3]) and 1.7e-07 M on AHR [2].

As to `O=C(N[C@H]1CCCC[C@@H]1O)c1cc(-c2ccc(Cl)cc2)nn(-c2cccc(F)c2)c1=O` (single isomer, unassigned) [Example 119, 6-(4-Chlorophenyl)-2-(3-fluorophenyl)-N-(trans-2-hydroxycyclohexyl)-3-oxo-2,3-dihydropyridazine-4-carboxamide], the values for the half-inhibitory concentration (IC50) on AHR [1] (setting [4]) and on AHR [2] were more than 2e-05 M and 4.51e-07 M, respectively.

For the compound `COc1ccc(-c2cc(C(=O)N[C@@H]3CCC[C@H]3O)c(=O)n(-c3cccc(F)c3)n2)cc1` (relative stereo) [Example 154, 2-(3-Fluorophenyl)-N-(trans-2-hydroxycyclopentyl)-6-(4-methoxyphenyl)-3-oxo-2,3-dihydropyridazine-4-carboxamide], the concentration for half-maximal inhibition (IC50) against AHR [1] (setting [3]) is more than 2e-05 M; against AHR [2], 1.69e-07 M.

On to `O=C(NC(CO)CCO)c1cc(-c2ccc(Cl)cc2)nn(-c2cccc(F)c2)c1=O` (racemic) [Example 224, 6-(4-Chlorophenyl)-N-[(2RS)-1,4-dihydroxybutan-2-yl]-2-(3-fluorophenyl)-3-oxo-2,3-dihydropyridazine-4-carboxamide], for which the half-inhibitory concentration (IC50) on AHR [1] (setting [3]) is more than 2e-05 M; against AHR [2], 2.79e-07 M.

As for `COc1ccc(-c2cc(C(=O)N[C@@H]3CCC[C@@H]3O)c(=O)n(-c3cccc(F)c3)n2)cc1` [Example 139, 2-(3-Fluorophenyl)-N-[(1R,2S)-2-hydroxycyclopentyl]-6-(4-methoxyphenyl)-3-oxo-2,3-dihydropyridazine-4-carboxamide], the results for the IC50 on AHR [1] (setting [3]) and at AHR [2] were more than 2e-05 M and 6.97e-08 M, respectively.

On to `O=C(N[C@H]1C[C@H](CO)C1)c1cc(-c2ccc(Cl)cc2)nn(-c2cccc(F)c2)c1=O` [Example 396, 6-(4-chlorophenyl)-2-(3-fluorophenyl)-N-[trans-3-(hydroxymethyl)cyclobutyl]-3-oxo-2,3-dihydropyridazine-4-carboxamide], for which the IC50 against AHR [1] (setting [3]) is more than 2e-05 M; against AHR [2], 1.3e-07 M.

Regarding `CC(C)[C@@H](CO)NC(=O)c1cc(-c2ccc(C(F)F)cc2)nn(-c2cccc(F)c2)c1=O` [Example 91, 6-[4-(Difluoromethyl)phenyl]-2-(3-fluorophenyl)-N-[(2S)-1-hydroxy-3-methylbutan-2-yl]-3-oxo-2,3-dihydropyridazine-4-carboxamide], the concentration for half-maximal inhibition (IC50) against AHR [1] (setting [3]) was more than 2e-05 M; at AHR [2], 4.44e-09 M.

Regarding `O=C(N[C@H]1COC[C@@H]1O)c1cc(-c2ccc(Cl)cc2)nn(-c2cccc(F)c2)c1=O` (relative stereo) [Example 134, 6-(4-Chlorophenyl)-2-(3-fluorophenyl)-N-(trans-4-hydroxytetrahydrofuran-3-yl)-3-oxo-2,3-dihydropyridazine-4-carboxamide], the figures for the half-inhibitory concentration (IC50) on AHR [1] (setting [3]) and against AHR [2] were more than 2e-05 M and 1.72e-07 M, respectively.

`CC(C)C(O)CNC(=O)c1cc(-c2ccc(C(F)(F)F)cc2)nn(-c2cccc(F)c2)c1=O` (racemic) [Example 241, 2-(3-Fluorophenyl)-N-[(2RS)-2-hydroxy-3-methylbutyl]-3-oxo-6-[4-(trifluoromethyl)phenyl]-2,3-dihydropyridazine-4-carboxamide]: the IC50 was 1.16e-07 M against AHR [1] (setting [3]) and more than 2e-05 M at AHR [2].
